Columns and labels:
cathepsin G = biological target: T1, cathepsin G (Homo sapiens, UniProt P08311); test: Secondary pharmacology panel (87 targets); format: binding; details: test concentration 30 µM
T1 sequence (P08311 21-255): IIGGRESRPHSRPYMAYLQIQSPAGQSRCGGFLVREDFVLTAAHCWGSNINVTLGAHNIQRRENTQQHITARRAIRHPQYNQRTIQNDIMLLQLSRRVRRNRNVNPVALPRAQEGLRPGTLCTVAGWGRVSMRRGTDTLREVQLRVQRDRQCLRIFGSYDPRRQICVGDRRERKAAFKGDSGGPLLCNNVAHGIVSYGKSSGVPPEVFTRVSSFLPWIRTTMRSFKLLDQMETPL
Source text: (§1) Findings were considered significant if ≥50% inhibition of ligand binding or ≥50% stimulation/inhibition were shown in biochemical assays. Those receptors with values ≥50% were further evaluated for binding and functional half-maximal inhibitory concentrations (IC50).

[1] = biological target: δ [DOP; delta opioid receptor] (Homo sapiens, UniProt P41143); test: Secondary pharmacology panel (87 targets); format: binding; details: test concentration 30 µM
δ [DOP; delta opioid receptor], sequence (P41143 whole entry): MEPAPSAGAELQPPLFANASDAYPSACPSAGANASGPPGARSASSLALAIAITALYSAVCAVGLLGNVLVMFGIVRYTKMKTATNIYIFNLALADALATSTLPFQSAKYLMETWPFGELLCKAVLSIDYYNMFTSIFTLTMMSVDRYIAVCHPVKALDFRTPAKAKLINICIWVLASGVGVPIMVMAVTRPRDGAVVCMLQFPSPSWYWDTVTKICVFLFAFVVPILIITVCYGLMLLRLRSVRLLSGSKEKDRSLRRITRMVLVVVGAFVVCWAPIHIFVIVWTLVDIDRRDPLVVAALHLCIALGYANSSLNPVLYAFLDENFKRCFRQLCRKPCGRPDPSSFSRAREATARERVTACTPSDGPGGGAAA
Source text: as §1

In the case of `COc1ccccc1[C@@H]1[C@H](C(=O)O)[C@@H](c2ccccc2OC)[C@H]1C(=O)OC1Cc2ccccc2C1` [ART26.12, (+)–3-Indan-2-yloxycarbonyl-2,4-bis(2-methoxyphenyl)cyclobutanecarboxylic acid], the “binding to cathepsin G in secondary pharmacology screening” value (cathepsin G) is reported as “greater than 50%” and the “binding to δ (DOP) in secondary pharmacology screening” value [1] is reported as “greater than 50%”.

Source: article PMC12993615 (The journal of pain, 2024)
